# Test results as given in patent US20220112187A1, “PYRAZOLOPYRIDINE AMINE COMPOUNDS FOR THE TREATMENT OF AUTOIMMUNE DISEASE” (Hoffmann-La Roche Inc., priority 2018, published 2022).
# Biological target: T1, human TLR9 (Homo sapiens, UniProt Q9NR96)
# T1 sequence (Q9NR96 26-1032): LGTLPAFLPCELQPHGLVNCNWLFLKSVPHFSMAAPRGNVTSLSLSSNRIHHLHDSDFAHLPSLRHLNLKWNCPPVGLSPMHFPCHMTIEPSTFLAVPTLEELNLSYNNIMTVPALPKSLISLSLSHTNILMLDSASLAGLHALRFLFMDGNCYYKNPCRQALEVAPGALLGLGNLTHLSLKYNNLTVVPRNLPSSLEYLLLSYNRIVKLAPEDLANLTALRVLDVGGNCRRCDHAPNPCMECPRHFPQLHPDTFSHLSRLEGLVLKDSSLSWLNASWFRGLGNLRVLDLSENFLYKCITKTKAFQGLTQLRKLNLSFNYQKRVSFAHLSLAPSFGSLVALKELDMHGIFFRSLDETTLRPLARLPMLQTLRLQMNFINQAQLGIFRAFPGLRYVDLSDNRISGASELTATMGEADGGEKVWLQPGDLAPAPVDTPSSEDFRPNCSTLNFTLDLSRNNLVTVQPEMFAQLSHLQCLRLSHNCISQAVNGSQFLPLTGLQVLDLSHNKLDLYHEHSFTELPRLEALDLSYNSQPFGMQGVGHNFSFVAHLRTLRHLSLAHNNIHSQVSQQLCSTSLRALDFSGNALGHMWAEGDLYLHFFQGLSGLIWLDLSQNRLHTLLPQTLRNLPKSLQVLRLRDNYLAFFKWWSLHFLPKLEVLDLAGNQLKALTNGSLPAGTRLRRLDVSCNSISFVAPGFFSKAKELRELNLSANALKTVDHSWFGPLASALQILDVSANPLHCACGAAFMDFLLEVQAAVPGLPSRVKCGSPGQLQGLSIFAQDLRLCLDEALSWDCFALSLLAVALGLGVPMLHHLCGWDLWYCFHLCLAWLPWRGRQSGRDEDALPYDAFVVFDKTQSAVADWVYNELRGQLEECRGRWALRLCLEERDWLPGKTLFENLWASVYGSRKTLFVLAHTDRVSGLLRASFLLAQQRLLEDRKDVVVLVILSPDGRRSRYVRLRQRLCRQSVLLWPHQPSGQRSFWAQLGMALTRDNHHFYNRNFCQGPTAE
# Assay: HEK293-Blue-hTLR-9 cells assay (SEAP reporter, ODN2006 stimulation)
# Assay type: cell-based
# Conditions: HEK293-Blue-hTLR9 cells, ODN2006 ligand, 20 hrs incubation
# Excerpt: A stable HEK293-Blue-hTLR-9 cell line was purchased from InvivoGen (Cat. #: hkb-htlr9, San Diego, Calif., USA). These cells were originally designed for studying the stimulation of human TLR9 by monitoring the activation of NF-κB. A SEAP (secreted embryonic alkaline phosphatase) reporter gene was placed under the control of the IFN-β minimal promoter fused to five NF-κB and AP-1-binding sites. The SEAP was induced by activating NF-κB and AP-1 via stimulating HEK-Blue hTLR9 cells with TLR9 ligands. Therefore the reporter expression was declined by TLR9 antagonist under the stimulation of a ligand, such as ODN2006 (Cat. #: tlr1-2006-1, Invivogen, San Diego, Calif., USA), for incubation of 20 hrs. The cell culture supernatant SEAP reporter activity was determined using QUANTI-Blue™ kit (Cat. #: rep-qb1, Invivogen, San Diego, Calif., USA) at a wavelength of 640 nm, a detection medium that turns purple or blue in the presence of alkaline phosphatase.
# HEK293-Blue-hTLR9 cells were incubated at a density of 250,000˜450,000 cells/mL in a volume of 170 μL in a 96-well plate in Dulbecco's Modified Eagle's medium (DMEM) containing 4.5 g/L glucose, 50 U/mL penicillin, […], […], 2 mM L-glutamine, 10% (v/v) heat-inactivated fetal bovine serum with addition of 20 μL test compound in a serial dilution in the presence of final DMSO at 1% and 10 μL of 20 uM ODN2006 in above DMEM, perform incubation under 37° C. in a CO2 incubator for 20 hrs. Then 20 μL of the supernatant from each well was incubated with 180 μL Quanti-blue substrate solution at 37° C. for 2 hrs and the absorbance was read at 620-655 nm using a spectrophotorneter. The signalling pathway that TLR9 activation leads to downstream NF-κB activation has been widely accepted, and therefore similar reporter assay was modified for evaluating TLR9 antagonist.
row,SMILES,IC50 [nM]
1,"C[C@@H]1CN(c2ccc(C#N)n3nccc23)C[C@H](CN2CC3CCCNC3C2)O1 (stereo partly drawn) [Example 45, 4-[(2S,6R)-2-(1,2,3,4,4a,5,7,7a-octahydropyrrolo[3,4-b]pyridin-6-ylmethyl)-6-methyl-morpholin-4-yl]pyrazolo[1,5-a]pyridine-7-carbonitrile]",970
2,"C[C@@H]1CN(c2ccc(C#N)n3nccc23)C[C@H](CN2CC3(CC(N)C3)C2)O1 [Example 11, 4-[(2S,6R)-2-[(6-amino-2-azaspiro[3.3]heptan-2-yl)methyl]-6-methyl-morpholin-4-yl]pyrazolo[1,5-a]pyridine-7-carbonitrile]",97
3,"C[C@@H]1CN(c2ccc(C#N)n3ncc(F)c23)C[C@H](CN2CCCC3(CCNCC3)C2)O1 [Example 67, 4-[(2S,6R)-2-(2,9-diazaspiro[5.5]undecan-2-ylmethyl)-6-methyl-morpholin-4-yl]-3-fluoro-pyrazolo[1,5-a]pyridine-7-carbonitrile]",87
4,"C[C@@H]1CN(c2ccc(C#N)n3nccc23)C[C@H](CN2CC3CNCC3C2)O1 (stereo partly drawn) [Example 22, 4-[(2S,6R)-2-(2,3,3a,4,6,6a-hexahydro-1H-pyrrolo[3,4-c]pyrrol-5-ylmethyl)-6-methyl-morpholin-4-yl]pyrazolo[1,5-a]pyridine-7-carbonitrile]",180
5,"C[C@@H]1CN(c2ccc(C#N)n3nccc23)C[C@H](CN2CCCC3CNCC32)O1 (stereo partly drawn) [Example 61, 4-[(2S,6R)-2-(2,3,4,4a,5,6,7,7a-octahydropyrrolo[3,4-b]pyridin-1-ylmethyl)-6-methyl-morpholin-4-yl]pyrazolo[1,5-a]pyridine-7-carbonitrile]",6100
6,"C[C@@H]1CN(c2ccc(C#N)n3nccc23)C[C@H](CN2CCC3(CCCNC3)C2)O1 (stereo partly drawn) [Example 25, 4-[(2S,6R)-2-(2,9-diazaspiro[4.5]decan-2-ylmethyl)-6-methyl-morpholin-4-yl]pyrazolo[1,5-a]pyridine-7-carbonitrile]",88
7,"C[C@@H]1CN(c2ccc(C#N)n3nccc23)C[C@H](CN2CCC(N)CC2)O1 [Example 17, 4-[(2S,6R)-2-[(4-amino-1-piperidyl)methyl]-6-methyl-morpholin-4-yl]pyrazolo[1,5-a]pyridine-7-carbonitrile]",180
8,"C[C@@H]1CN(c2ccc(C#N)n3nccc23)C[C@H](CN2CCCC3(CCNCC3)C2)O1 [Example 32, 4-[(2S,6R)-2-(2,9-diazaspiro[5.5]undecan-2-ylmethyl)-6-methyl-morpholin-4-yl]pyrazolo[1,5-a]pyridine-7-carbonitrile]",65
9,"C[C@@H]1CN(c2ccc(C#N)n3nccc23)C[C@H](CN2CC3CNCCC32)O1 (stereo partly drawn) [Example 52, 4-[(2S,6R)-2-(3,7-diazabicyclo[4.2.0]octan-7-ylmethyl)-6-methyl-morpholin-4-yl]pyrazolo[1,5-a]pyridine-7-carbonitrile]",260
10,"C[C@@H]1CN(c2ccc(C#N)n3nccc23)C[C@H](CN2CCN(C)CC2)O1 [Example 15, 4-[(2R,6S)-2-methyl-6-[(4-methylpiperazin-1-yl)methyl]morpholin-4-yl]pyrazolo[1,5-a]pyridine-7-carbonitrile]",23000
11,"C[C@@H]1CN(c2ccc(C#N)n3nccc23)C[C@H](CN2C3CCCC2CC(N)C3)O1 (stereo partly drawn) [Example 65, Endo-4-[(2S,6R)-2-[(3-amino-9-azabicyclo[3.3.1]nonan-9-yl)methyl]-6-methyl-morpholin-4-yl]pyrazolo[1,5-a]pyridine-7-carbonitrile]",140
12,"C[C@@H]1CN(c2ccc(C#N)n3nccc23)C[C@H](CN2CCC(N3CCN(C)CC3)CC2)O1 [Example 1, 4-[(2R,6S)-2-methyl-6-[[4-(4-methylpiperazin-1-yl)-1-piperidyl]methyl]morpholin-4-yl]pyrazolo[1,5-a]pyridine-7-carbonitrile]",130
13,"C[C@@H]1CN(c2ccc(C#N)n3nccc23)C[C@H](CN2CCC(CN)CC2)O1 [Example 12, 4-[(2S,6R)-2-[[4-(aminomethyl)-1-piperidyl]methyl]-6-methyl-morpholin-4-yl]pyrazolo[1,5-a]pyridine-7-carbonitrile]",200
14,"C[C@@H]1CN(c2ccc(C#N)n3nccc23)C[C@H](CN2CCC(N3CCNCC3)CC2)O1 [Example 39, 4-[(2R,6S)-2-methyl-6-[(4-piperazin-1-yl-1-piperidyl)methyl]morpholin-4-yl]pyrazolo[1,5-a]pyridine-7-carbonitrile]",96
15,"C[C@@H]1CN(c2ccc(C#N)n3nccc23)C[C@H](CN2CCCC3(CCCNC3)C2)O1 (stereo partly drawn) [Example 23, 4-[(2S,6R)-2-(2,8-diazaspiro[5.5]undecan-2-ylmethyl)-6-methyl-morpholin-4-yl]pyrazolo[1,5-a]pyridine-7-carbonitrile]",250
16,"C[C@@H]1CN(c2ccc(C#N)n3nccc23)C[C@H](CN2CCC3(CCNC3)CC2)O1 [Example 19, 4-[(2S,6R)-2-(2,8-diazaspiro[4.5]decan-8-ylmethyl)-6-methyl-morpholin-4-yl]pyrazolo[1,5-a]pyridine-7-carbonitrile]",92
17,"C[C@@H]1CN(c2ccc(C#N)n3ncc(F)c23)C[C@H](CN2CCC3(CCCNC3)C2)O1 (stereo partly drawn) [Example 69, 3-fluoro-4-[(2S,6R)-2-(2,9-diazaspiro[4.5]decan-2-ylmethyl)-6-methyl-morpholin-4-yl]pyrazolo[1,5-a]pyridine-7-carbonitrile]",130
18,"C[C@@H]1CN(c2ccc(C#N)n3nccc23)C[C@H](CN2CCC3(CCNCC3)C2)O1 [Example 18, 4-[(2S,6R)-2-(2,8-diazaspiro[4.5]decan-2-ylmethyl)-6-methyl-morpholin-4-yl]pyrazolo[1,5-a]pyridine-7-carbonitrile]",89
19,"C[C@@H]1CN(c2ccc(C#N)n3nccc23)C[C@H](CN2CCC3(CCN3)CC2)O1 [Example 48, 4-[(2S,6R)-2-(1,7-diazaspiro[3.5]nonan-7-ylmethyl)-6-methyl-morpholin-4-yl]pyrazolo[1,5-a]pyridine-7-carbonitrile]",250
20,"C[C@@H]1CN(c2ccc(C#N)n3nccc23)C[C@H](CN2CCC(CCN)CC2)O1 [Example 13, 4-[(2S,6R)-2-[[4-(2-aminoethyl)-1-piperidyl]methyl]-6-methyl-morpholin-4-yl]pyrazolo[1,5-a]pyridine-7-carbonitrile]",270
21,"C[C@@H]1CN(c2ccc(C#N)n3nccc23)C[C@H](CN2CC[C@H](N)[C@H](C)C2)O1 [Example 74, 4-[(2S,6R)-2-[[(3R,4S)-4-amino-3-methyl-1-piperidyl]methyl]-6-methyl-morpholin-4-yl]pyrazolo[1,5-a]pyridine-7-carbonitrile]",220
22,"C[C@@H]1CN(c2ccc(C#N)n3nccc23)C[C@H](CN2C3CCCC2CC(N)C3)O1 (stereo partly drawn) [Example 66, Exo-4-[(2S,6R)-2-[(3-amino-9-azabicyclo[3.3.1]nonan-9-yl)methyl]-6-methyl-morpholin-4-yl]pyrazolo[1,5-a]pyridine-7-carbonitrile]",120
23,"CC1CN(C[C@H]2CN(c3ccc(C#N)n4nccc34)C[C@@H](C)O2)CCN1 (stereo partly drawn) [Example 28, 4-[(2R,6S)-2-methyl-6-[(3-methylpiperazin-1-yl)methyl]morpholin-4-yl]pyrazolo[1,5-a]pyridine-7-carbonitrile]",14000
